Legend:
Assay in all cases: relative viability (nuclei count vs DMSO), 5 days (fraction); higher = more cells survive
A-427 = test system: A-427
How it was run: (§1)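 Values are medians from duplicate plates. Each reflects relative viability, defined as the nuclei count of treated wells over that of vehicle wells. Lung cancer cell lines in 1536-well plates were pin-tool dosed one day after seeding with one drug alone or with a fixed anchor-drug dose plus five library-drug doses (not always all listed) in √10 steps, then fixed, stained and imaged at 4× after 5 days.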

CAL-12T = test system: CAL-12T
How it was run: as §1

H3255 = test system: H3255
How it was run: as §1

LCLC-97TM1 = test system: LCLC-97TM1
How it was run: as §1

LK-2 = test system: LK-2
How it was run: as §1

NCI-H1355 = test system: NCI-H1355
How it was run: as §1

NCI-H1395 = test system: NCI-H1395
How it was run: as §1

NCI-H1651 = test system: NCI-H1651
How it was run: as §1

NCI-H1666 = test system: NCI-H1666
How it was run: as §1

NCI-H1792 = test system: NCI-H1792
How it was run: as §1

NCI-H1915 = test system: NCI-H1915
How it was run: as §1

O=c1[nH]c2ccccc2n1C1CCN(CCCC(c2ccc(F)cc2)c2ccc(F)cc2)CC1 [Pimozide] + Nc1nc2[nH]cc(CCc3ccc(C(=O)N[C@@H](CCC(=O)O)C(=O)O)cc3)c2c(=O)[nH]1 [Pemetrexed] (partner 0.2 µM)
relative viability (A-427; first compound 0.08 µM): 0.992
relative viability (A-427; first compound 0.253 µM): 0.979
relative viability (A-427; first compound 0.8 µM): 0.928
relative viability (A-427; first compound 2.53 µM): 0.899
relative viability (A-427; first compound 8 µM): 0.845
relative viability (CAL-12T; first compound 0.08 µM): 1.22
relative viability (CAL-12T; first compound 0.253 µM): 1.22
relative viability (CAL-12T; first compound 0.8 µM): 1.14
relative viability (CAL-12T; first compound 2.53 µM): 1.22
relative viability (CAL-12T; first compound 8 µM): 1.11
relative viability (H3255; first compound 0.253 µM): 0.53
relative viability (H3255; first compound 0.8 µM): 0.503
relative viability (H3255; first compound 2.53 µM): 0.519
relative viability (H3255; first compound 8 µM): 0.578
relative viability (LCLC-97TM1; first compound 0.08 µM): 0.2
relative viability (LCLC-97TM1; first compound 0.253 µM): 0.177
relative viability (LCLC-97TM1; first compound 0.8 µM): 0.19
relative viability (LCLC-97TM1; first compound 2.53 µM): 0.18
relative viability (LCLC-97TM1; first compound 8 µM): 0.156
relative viability (LK-2; first compound 0.08 µM): 0.243
relative viability (LK-2; first compound 0.253 µM): 0.268
relative viability (LK-2; first compound 0.8 µM): 0.335
relative viability (LK-2; first compound 8 µM): 0.265
relative viability (NCI-H1355; first compound 0.08 µM): 1.07
relative viability (NCI-H1355; first compound 0.253 µM): 1.01
relative viability (NCI-H1355; first compound 0.8 µM): 0.878
relative viability (NCI-H1355; first compound 2.53 µM): 1.03
relative viability (NCI-H1355; first compound 8 µM): 1.01
relative viability (NCI-H1395; first compound 0.08 µM): 0.887
relative viability (NCI-H1395; first compound 0.253 µM): 0.825
relative viability (NCI-H1395; first compound 0.8 µM): 0.822
relative viability (NCI-H1395; first compound 2.53 µM): 0.823
relative viability (NCI-H1395; first compound 8 µM): 0.831
relative viability (NCI-H1651; first compound 0.08 µM): 0.603
relative viability (NCI-H1651; first compound 0.253 µM): 0.487
relative viability (NCI-H1651; first compound 0.8 µM): 0.697
relative viability (NCI-H1651; first compound 2.53 µM): 0.562
relative viability (NCI-H1651; first compound 8 µM): 0.566
relative viability (NCI-H1666; first compound 0.08 µM): 0.808
relative viability (NCI-H1666; first compound 0.253 µM): 0.809
relative viability (NCI-H1666; first compound 0.8 µM): 0.834
relative viability (NCI-H1666; first compound 2.53 µM): 0.891
relative viability (NCI-H1666; first compound 8 µM): 0.782
relative viability (NCI-H1792; first compound 0.08 µM): 0.822
relative viability (NCI-H1792; first compound 0.253 µM): 0.786
relative viability (NCI-H1792; first compound 0.8 µM): 0.43
relative viability (NCI-H1792; first compound 2.53 µM): 0.727
relative viability (NCI-H1792; first compound 8 µM): 0.356
relative viability (NCI-H1915; first compound 0.08 µM): 0.482
relative viability (NCI-H1915; first compound 0.253 µM): 0.415
relative viability (NCI-H1915; first compound 2.53 µM): 0.448
relative viability (NCI-H1915; first compound 8 µM): 0.423

— the supplement of paper PMC10307832
